In data set [1] the test system is Staphylococcus aureus MTCC 9542. The data set is classed as cell-based. The settings on record: lowest peptide concentration required to kill entire bacteria, 24 hrs, NA = not active up to the highest concentration tested.
Excerpt: (§2) Antimicrobial activity: Broth dilution method [39] was used to assess the antimicrobial activity of the peptides. Bacterial strains used for in vitro antibacterial assay were Staphylococcus aureus (MTCC 9542), Bacillus subtilis (MTCC 14416), Bacillus coagulans (ATCC 7050), Methicillin-resistant Staphylococcus aureus (MRSA) (ATCC 43300), Streptococcus mutans (MTCC 497), Streptococcus gordonii (MTCC 2695), Vibrio cholerae (MCV09), Escherichia coli (ATCC 25922), Vancomycin-resistant enterococcus (VRE) (ATCC 29212) and gram-negative fish pathogens Aeromonas hydrophila (ATCC 7966) and Aeromonas sobria (ATCC 43979). Bacterial cultures were grown in Muller Hinton broth (MHB) (Hi-media) by overnight incubation at 37° C. with constant shaking. Microbial cultures having 10^6 CFU/ml were made from OD600: 0.6 cultures. 400 μM stock solutions of peptides were prepared in autoclaved double distilled water and diluted in MHB to make concentrations ranging from 0.7 to 100 μM. Bacterial inoculum without peptide was used as the negative control.
The next data set relates to Vibrio cholerae MCV09. Type of data set: cell-based. The settings on record: NA = not active up to the highest concentration tested.
Another data set has as its system S. aureus (MTCC 9542). As to the kind of experiment: SYTOX green uptake, confocal imaging of membrane permeation. Type of data set: cell-based, Staphylococcus aureus. To be noted: MIC concentration, 10 min, CLSM. As to the method:
(§1) Imaging the bacterial membrane permeation by the amidated peptides. In order to find out the membrane damage by the peptides, if any, we used SYTOX green uptake assay. MIC concentrations of B1/1 CONH2 and B1/2 CONH2 were prepared in sodium phosphate buffer (10 mM, pH: 7.4). Overnight cultures of S. aureus (MTCC 9542) and V. cholerae (MCV09) were re-inoculated in fresh MHB to attain an OD600-0.6. The bacterial suspension was centrifuged (3000×g) for 5 min and the pellet was washed twice with the sodium phosphate buffer (10 mM, pH: 7.4). The pellet was resuspended in the same buffer to an OD600-0.06. Diluted culture was incubated with the peptides for 10 min at 37° C. 100 μl suspensions were poured on to poly-L-lysine coated glass slides and incubated at 37° c. for 30 minutes. The glass slides were washed twice in the same buffer to remove unattached cells. After washing 50 μl of DAPI (10 μg/ml) was smeared on the glass slide and incubated for 30 minutes at 37° C. The slides were washed twice with the buffer and SYTOX green (0.1 μM) was smeared and incubated for 15 minutes at room temperature, washed twice and dried. A drop of glycerol was placed on the slides, mounted with a cover slip and sealed. Controls were run in the presence of peptide solvents. The slides were subjected to confocal laser scanning microscopy (CLSM).

In another data set the test system is human erythrocytes. The data set is classed as cell-based. The settings on record: 60 min. As to the method: Hemolytic Activity: Hemolytic assay was carried out as previously described. Briefly, 10% (v/v) suspensions of fresh human erythrocytes in phosphate buffered saline (pH 7.2) were incubated with different concentrations (100 μM-0.7 μM) of B1/1 COOH & B1/2 COOH, B1/1 CONH2 & B1/2 CONH2 and cyclic B1/1 CONH2 & cyclic B1/2 CONH2 and incubated at 3^7° C. for 60 min. The cells were centrifuged (3000×g) for 5 min, and absorbance of the supernatant was measured at 595 nm. Hemolysis caused by 10% Triton X-100 was taken as positive control. Percentage hemolysis was calculated by measuring the mean amount of hemoglobin released as a result of lysis of erythrocyte from three independent experiments.

The subject of data set [2] is Aeromonas sobria ATCC 43979. Type of data set: cell-based. The settings on record: Aeromonas sobria ATCC 43979 (fish pathogen); NA = not active up to the highest concentration tested.
Excerpt: as §2
The subject of data set [3] is Aeromonas hydrophilia ATCC 7966. The data set is classed as cell-based, Aeromonas hydrophila. The settings on record: Aeromonas hydrophilia ATCC 7966 (fish pathogen); NA = not active up to the highest concentration tested.
Excerpt: as §2
The next data set concerns V. cholerae (MCV09). As to the kind of experiment: SYTOX green uptake, confocal imaging of membrane permeation. Type of data set: cell-based, Vibrio cholerae. The settings on record: MIC concentration, 10 min, CLSM. As to the method:
as §1

The test system of another data set is MRSA ATCC 43300. Type of data set: cell-based, Methicillin-resistant Staphylococcus aureus. The settings on record: lowest concentration killing entire bacteria, 24 hrs.
Another data set concerns VRE ATCC 29212. To be noted: lowest concentration killing entire bacteria, 24 hrs.
The test system of data set [4] is V. cholerae cells (MCV09). The data set can be described thus: Atomic Force Microscopy of surface morphology. Type of data set: cell-based, Vibrio cholerae. The settings on record: MIC, 15 min. The method, then:
Visualizing the changes in surface morphology of bacteria: Atomic Force Microscopy. This was incorporated to get more insights into the mechanism of action of the peptides and to confirm the results obtained from SEM. V. cholerae cells (MCV09) were grown in MHB at 37° C., washed, and suspended in sodium phosphate buffer (10 mM, pH: 7.4) (OD600-0.06). Diluted bacteria were incubated with the MICs of B1/1 CONH2 and B1/2 CONH2 for 15 min. The control sample was prepared without the peptides. Samples were prepared by drop casting 20 μL of a solution on the freshly cleaved mica surface and dried under air. AFM analyses were carried out on Multimode SPM (Veeco Nanoscope V). Imaging was done under ambient conditions in tapping mode. The probe used for imaging was antimony doped silicon cantilever with a resonant frequency of 300 kHz and a spring constant of 40 Nm^−1.

The subject of data set [5] is Bacillus subtilis MTCC 14416. Type of data set: cell-based. The settings on record: lowest concentration killing entire bacteria, 24 hrs.
Excerpt: as §2
In data set [6] the test system is Streptococcus mutans MTCC 497. Type of data set: cell-based. The settings on record: NA = not active up to the highest concentration tested.
Excerpt: as §2
The test system of another data set is E .coli. ATCC 25922. The data set is classed as cell-based, Escherichia coli.
Data set [7] has as its system Streptococcus gordonii MTCC 2695. The data set is classed as cell-based. The settings on record: NA = not active up to the highest concentration tested.
Excerpt: as §2
Data set [8] has as its system Bacillus coagulans ATCC 7050. Type of data set: cell-based. The settings on record: lowest concentration killing entire bacteria, 24 hrs.
Excerpt: as §2
[9] abbreviates: at the peptide's MIC for Aeromonas sobria ATCC 43979 (MIC in parenthesis).
Where [10] appears, read: at the peptide's MIC for Staphylococcus aureus MTCC 9542 (MIC in parenthesis).
[11] abbreviates: at the peptide's MIC for Vibrio cholerae MCV09 (MIC in parenthesis).

Each structure is given as a SMILES string. In brackets after ≈: the same amount, converted by molar mass. Where two headings read alike, the source gives them in different places. Positions of bridges follow the written chain, without caps; N, C: chain ends. Residues, ends and D or L forms follow the SMILES beside them.

Excerpt for E .coli. ATCC 25922: as §2
Excerpt for MRSA ATCC 43300: as §2
Excerpt for VRE ATCC 29212: as §2
Excerpt for Vibrio cholerae MCV09: as §2

In general, MIC refers to the lowest concentration found to suppress growth. High values mean a less susceptible organism, low ones a more susceptible organism. As to `CC[C@H](C)[C@H](NC(=O)CNC(=O)[C@@H]1CCCN1C(=O)[C@H](Cc1ccccc1)NC(=O)[C@@H](N)Cc1ccccc1)C(=O)N[C@H](C(=O)N[C@@H](CCCCN)C(=O)N[C@H](C(=O)N[C@@H](C)C(=O)NCC(=O)N[C@@H](C)C(=O)N[C@H](C(=O)N[C@@H](CC(C)C)C(=O)N1CCC[C@H]1C(=O)N[C@H](C(=O)N[C@@H](C)C(=O)N[C@H](C(=O)N[C@@H](CS)C(=O)N[C@@H](C)C(=O)N[C@H](C(=O)N[C@H](C(=O)N[C@@H](CCCCN)C(=O)N[C@@H](CCCNC(=N)N)C(=O)N[C@@H](CS)C(N)=O)[C@@H](C)O)[C@@H](C)CC)[C@@H](C)CC)[C@@H](C)O)[C@@H](C)CC)C(C)C)[C@@H](C)CC` [B1/2 CONH2] (H-FFPGIIKVAGAILPTAICAITKRC-NH2; N-terminus assumed), the minimal inhibitory concentration (MIC) came to 2.5 µM (≈ 6.26 µg/mL) in data set [1]; 12 µM (≈ 30 µg/mL) in the data set on Vibrio cholerae MCV09; 12.5 µM (≈ 31.3 µg/mL) in data set [2]; 100 µM (≈ 250 µg/mL) in data set [3]; 5 µM (≈ 12.5 µg/mL) in the data set on MRSA ATCC 43300; 25 µM (≈ 62.6 µg/mL) with VRE ATCC 29212. The minimal inhibitory concentration (MIC) in data set [5] is 30 µM (≈ 75.1 µg/mL); in data set [6], 40 µM (≈ 100 µg/mL); in the data set on E .coli. ATCC 25922, 36.2 µM (≈ 90.6 µg/mL); in data set [7], 25 µM (≈ 62.6 µg/mL); in data set [8] it was 12.5 µM (≈ 31.3 µg/mL). For the same compound, the “SYTOX green fluorescence signal (membrane permeabilization)” value in the data set with S. aureus (MTCC 9542) and in the data set on V. cholerae (MCV09) was “marked increase in fluorescence signal” each time. Moreover, the entries for the “Percentage hemolysis at MIC” value in the data set on human erythrocytes (setting [9]), with human erythrocytes (setting [10]) and with human erythrocytes (setting [11]) were 25%, 8% and 25%, respectively. For the same compound, the “Changes in surface morphology (AFM)” value in [4] was “changes in surface morphology and aggregation”.
`CC[C@H](C)[C@H](NC(=O)CNC(=O)[C@@H]1CCCN1C(=O)[C@H](Cc1ccccc1)NC(=O)[C@@H](N)Cc1ccccc1)C(=O)N[C@H](C(=O)N[C@@H](CCCCN)C(=O)N[C@H](C(=O)N[C@@H](C)C(=O)N[C@@H](CO)C(=O)N[C@@H](C)C(=O)N[C@H](C(=O)N[C@@H](CC(C)C)C(=O)N1CCC[C@H]1C(=O)N[C@H](C(=O)N[C@@H](C)C(=O)N[C@H](C(=O)N[C@@H](CS)C(=O)N[C@@H](C)C(=O)N[C@H](C(=O)N[C@H](C(=O)N[C@@H](CCCCN)C(=O)N[C@@H](CCCNC(=N)N)C(=O)N[C@@H](CS)C(N)=O)[C@@H](C)O)[C@@H](C)CC)[C@@H](C)CC)[C@@H](C)O)[C@@H](C)CC)C(C)C)[C@@H](C)CC` [B1/1 CONH2] (H-FFPGIIKVASAILPTAICAITKRC-NH2; N-terminus assumed): the MIC in [1] was determined as 1.5 µM (≈ 3.8 µg/mL); in the data set on Vibrio cholerae MCV09 it was 10.3 µM (≈ 26.1 µg/mL); in data set [2] it was 12.5 µM (≈ 31.7 µg/mL); in data set [3] it was 100 µM (≈ 253 µg/mL); in the data set with MRSA ATCC 43300, 2.5 µM (≈ 6.33 µg/mL); with VRE ATCC 29212, 25 µM (≈ 63.3 µg/mL). Further, the minimum inhibitory concentration (MIC) in data set [5] was determined as 36.3 µM (≈ 92 µg/mL); in data set [6] it was 36 µM (≈ 91.2 µg/mL); in the data set on E .coli. ATCC 25922, 29 µM (≈ 73.5 µg/mL); in data set [7] it was 19 µM (≈ 48.1 µg/mL); in [8], 8.2 µM (≈ 20.8 µg/mL). Further, the “SYTOX green fluorescence signal (membrane permeabilization)” value in the data set with S. aureus (MTCC 9542) and in the data set on V. cholerae (MCV09) was “marked increase in fluorescence signal” throughout. The “Percentage hemolysis at MIC” value with human erythrocytes (setting [9]) is listed as 25%; in the data set on human erythrocytes (setting [10]), 10%; in the data set on human erythrocytes (setting [11]), 20%. Further, the “Changes in surface morphology (AFM)” value in data set [4] is “changes in surface morphology and aggregation”.
For `CC[C@H](C)[C@H](NC(=O)CNC(=O)[C@@H]1CCCN1C(=O)[C@H](Cc1ccccc1)NC(=O)[C@@H](N)Cc1ccccc1)C(=O)N[C@H](C(=O)N[C@@H](CCCCN)C(=O)N[C@H](C(=O)N[C@@H](C)C(=O)NCC(=O)N[C@@H](C)C(=O)N[C@H](C(=O)N[C@@H](CC(C)C)C(=O)N1CCC[C@H]1C(=O)N[C@H](C(=O)N[C@@H](C)C(=O)N[C@H](C(=O)N[C@H]1CSSC[C@@H](C(N)=O)NC(=O)[C@H](CCCNC(=N)N)NC(=O)[C@H](CCCCN)NC(=O)[C@H]([C@@H](C)O)NC(=O)[C@H]([C@@H](C)CC)NC(=O)[C@H](C)NC1=O)[C@@H](C)CC)[C@@H](C)O)[C@@H](C)CC)C(C)C)[C@@H](C)CC` [Cyclic B1/2 CONH2] (H-FFPGIIKVAGAILPTAICAITKRC-NH2; disulfide 18-24; N-terminus assumed), the MIC in data set [1] worked out at 3 µM (≈ 7.5 µg/mL); with Vibrio cholerae MCV09, 12.5 µM (≈ 31.3 µg/mL); in data set [2], 3 µM (≈ 7.5 µg/mL); in [3], 50 µM (≈ 125 µg/mL); in the data set on MRSA ATCC 43300 it was 7 µM (≈ 17.5 µg/mL); in the data set with VRE ATCC 29212, 30 µM (≈ 75 µg/mL). Also, the MIC in data set [5] turned out to be 35 µM (≈ 87.5 µg/mL); in data set [6] it was 40 µM (≈ 100 µg/mL); in the data set with E .coli. ATCC 25922 it was 50 µM (≈ 125 µg/mL); in data set [7], 25 µM (≈ 62.5 µg/mL); in data set [8] it was 29 µM (≈ 72.5 µg/mL). Also, the “Percentage hemolysis at MIC” value in the data set with human erythrocytes (setting [9]) turned out to be 12%; in the data set with human erythrocytes (setting [10]), 15%; in the data set on human erythrocytes (setting [11]) it was 25%.
For the compound `CC[C@H](C)[C@H](NC(=O)CNC(=O)[C@@H]1CCCN1C(=O)[C@H](Cc1ccccc1)NC(=O)[C@@H](N)Cc1ccccc1)C(=O)N[C@H](C(=O)N[C@@H](CCCCN)C(=O)N[C@H](C(=O)N[C@@H](C)C(=O)N[C@@H](CO)C(=O)N[C@@H](C)C(=O)N[C@H](C(=O)N[C@@H](CC(C)C)C(=O)N1CCC[C@H]1C(=O)N[C@H](C(=O)N[C@@H](C)C(=O)N[C@H](C(=O)N[C@H]1CSSC[C@@H](C(N)=O)NC(=O)[C@H](CCCNC(=N)N)NC(=O)[C@H](CCCCN)NC(=O)[C@H]([C@@H](C)O)NC(=O)[C@H]([C@@H](C)CC)NC(=O)[C@H](C)NC1=O)[C@@H](C)CC)[C@@H](C)O)[C@@H](C)CC)C(C)C)[C@@H](C)CC` [Cyclic B1/1 CONH2] (H-FFPGIIKVASAILPTAICAITKRC-NH2; disulfide 18-24; N-terminus assumed), the minimum inhibitory concentration (MIC) came out at 3 µM (≈ 7.59 µg/mL) in data set [1]; 12.5 µM (≈ 31.6 µg/mL) against Vibrio cholerae MCV09; 3 µM (≈ 7.59 µg/mL) in data set [2]; 100 µM (≈ 253 µg/mL) in [3]; 5 µM (≈ 12.7 µg/mL) against MRSA ATCC 43300; 25 µM (≈ 63.3 µg/mL) with VRE ATCC 29212. Moreover, the MIC in [5] was 45 µM (≈ 114 µg/mL); in data set [6], 40 µM (≈ 101 µg/mL); against E .coli. ATCC 25922, 50 µM (≈ 127 µg/mL); in [7], 25 µM (≈ 63.3 µg/mL); in [8], 25 µM (≈ 63.3 µg/mL). The “Percentage hemolysis at MIC” value turned out to be 10% with human erythrocytes (setting [9]), 11% in the data set on human erythrocytes (setting [10]) and 20% in the data set with human erythrocytes (setting [11]).
